Target: T1, human TLR7 (Homo sapiens, UniProt Q9NYK1)
T1 construct: host or cells: HEK293 (HEK-Blue hTLR7)
T1 sequence (Q9NYK1 27-1049): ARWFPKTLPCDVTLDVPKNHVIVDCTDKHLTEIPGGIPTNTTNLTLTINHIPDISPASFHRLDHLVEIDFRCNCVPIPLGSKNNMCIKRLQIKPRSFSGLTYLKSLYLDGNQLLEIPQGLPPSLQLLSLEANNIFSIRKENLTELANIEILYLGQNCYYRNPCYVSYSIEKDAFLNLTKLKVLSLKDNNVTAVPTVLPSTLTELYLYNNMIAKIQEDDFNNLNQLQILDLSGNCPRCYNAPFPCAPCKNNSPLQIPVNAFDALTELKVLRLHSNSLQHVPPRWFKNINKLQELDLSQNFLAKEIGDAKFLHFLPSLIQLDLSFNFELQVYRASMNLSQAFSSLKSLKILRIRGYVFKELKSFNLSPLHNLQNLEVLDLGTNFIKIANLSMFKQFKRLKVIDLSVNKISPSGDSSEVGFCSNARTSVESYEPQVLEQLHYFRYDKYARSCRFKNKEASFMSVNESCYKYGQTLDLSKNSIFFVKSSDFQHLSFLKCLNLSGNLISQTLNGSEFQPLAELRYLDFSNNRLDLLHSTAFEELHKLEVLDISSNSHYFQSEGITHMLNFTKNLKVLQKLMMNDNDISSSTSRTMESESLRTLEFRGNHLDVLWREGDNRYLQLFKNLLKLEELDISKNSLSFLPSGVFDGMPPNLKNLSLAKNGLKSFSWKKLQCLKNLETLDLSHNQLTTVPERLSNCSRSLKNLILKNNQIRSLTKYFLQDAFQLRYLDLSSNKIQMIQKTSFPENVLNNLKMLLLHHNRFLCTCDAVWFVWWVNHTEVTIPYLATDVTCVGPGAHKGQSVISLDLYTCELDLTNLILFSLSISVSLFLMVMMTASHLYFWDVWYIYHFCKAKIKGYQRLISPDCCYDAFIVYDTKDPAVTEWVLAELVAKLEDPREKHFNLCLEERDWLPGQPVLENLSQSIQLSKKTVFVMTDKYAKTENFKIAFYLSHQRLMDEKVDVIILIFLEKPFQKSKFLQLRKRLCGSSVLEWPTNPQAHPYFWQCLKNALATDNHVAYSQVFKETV
Test: HEK293-Blue hTLR7 Reporter Assay (QUANTI-BLUE, SEAP readout)
Format: cell-based
Conditions: HEK-Blue-hTLR7 cells, 24 hrs treatment, Table 1, B1-B232
Summary of the method: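 Compound titrations were applied for 24 h at 37° C to reporter HEK293 cells (4×10^4 per well) in which human TLR7 activation drives secreted alkaline phosphatase. Supernatants reacted with Quanti-blue 10-30 min, absorbance read at 620-655 nm, and EC50 derived by sigmoidal curve fitting.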

EC50	Compound
9.2 nM	CCC(CC)Nc1nc(N)c2ncc(Cc3cnc(N4CCC(N(C)C)CC4)c(C)c3)n2n1 [Compound B209, 7-((6-(4-(dimethylamino)piperidin-1-yl)-5-methylpyridin-3-yl)methyl)-N2-(pentan-3-yl)imidazo[2,1-f][1,2,4]triazine-2,4-diamine]
12 nM	CCC(CC)Nc1nc(N)c2ncc(Cc3cnc(N4CCNCC4)c(C)c3)n2n1 [Compound B210, 7-((5-methyl-6-(piperazin-1-yl)pyridin-3-yl)methyl)-N2-(pentan-3-yl)imidazo[2,1-f][1,2,4]triazine-2,4-diamine]
7.7 nM	CCC(CC)Nc1nc(N)c2ncc(Cc3cnc(N4CCN(C(=O)CN(C)C)CC4)c(C)c3)n2n1 [Compound B211, 1-(4-(5-((4-amino-2-(pentan-3-ylamino)imidazo[2,1-f][1,2,4]triazin-7-yl)methyl)-3-methylpyridin-2-yl)piperazin-1-yl)-2-(dimethylamino)ethan-1-one]
6.2 nM	CCC[C@H](C)Oc1nc(N)c2ncc(Cc3cnc(N4CCN(C(=O)CNCC(C)C)CC4)c(C)c3)n2n1 [Compound B212, (S)-1-(4-(5-((4-amino-2-(pentan-2-yloxy)imidazo[2,1-f][1,2,4]triazin-7-yl)methyl)-3-methylpyridin-2-yl)piperazin-1-yl)-2-(isobutylamino)ethan-1-one]
4.2 nM	CCC[C@H](C)Oc1nc(N)c2ncc(Cc3cnc(N4CCC(NCC(C)C)CC4)c(C)c3)n2n1 [Compound B215, (S)-7-((6-(4-(isobutylamino)piperidin-1-yl)-5-methylpyridin-3-yl)methyl)-2-(pentan-2-yloxy)imidazo[2,1-f][1,2,4]triazin-4-amine]
1080 nM	CC[C@@H](CCO)Oc1nc(N)c2ncc(Cc3cnc(N4CCNCC4)c(C)c3)n2n1 [Compound B216, (S)-3-((4-amino-7-((5-methyl-6-(piperazin-1-yl)pyridin-3-yl)methyl)imidazo[2,1-f][1,2,4]triazin-2-yl)oxy)pentan-1-ol]
2440 nM	CC[C@H](O)CCOc1nc(N)c2ncc(Cc3cnc(N4CCNCC4)c(C)c3)n2n1 [Compound B217, (S)-1-((4-amino-7-((5-methyl-6-(piperazin-1-yl)pyridin-3-yl)methyl)imidazo[2,1-f][1,2,4]triazin-2-yl)oxy)pentan-3-ol]
46 nM	CCCC(CCO)Oc1nc(N)c2ncc(Cc3cnc(N4CCN(C(=O)CNC)CC4)c(C)c3)n2n1 (stereo not drawn) [Compound B218, 1-(4-(5-((4-amino-2-((1-hydroxyhexan-3-yl)oxy)imidazo[2,1-f][1,2,4]triazin-7-yl)methyl)-3-methylpyridin-2-yl)piperazin-1-yl)-2-(methylamino)ethan-1-one]
3.6 nM	CCCC(CCC)Nc1nc(N)c2ncc(Cc3cnc(N4CCC(CNC)CC4)c(C)c3)n2n1 [Compound B220, N2-(heptan-4-yl)-7-((5-methyl-6-(4-((methylamino)methyl)piperidin-1-yl)pyridin-3-yl)methyl)imidazo[2,1-f][1,2,4]triazine-2,4-diamine]
6 nM	CCCC(CC)Nc1nc(N)c2ncc(Cc3cnc(N4CCNCC4)c(C)c3)n2n1 (stereo not drawn) [Compound B223, N2-(hexan-3-yl)-7-((5-methyl-6-(piperazin-1-yl)pyridin-3-yl)methyl)imidazo[2,1-f][1,2,4]triazine-2,4-diamine]
46 nM	CCC[C@@H](CCO)Nc1nc(N)c2ncc(Cc3cnc(N4CCNCC4)c(C)c3)n2n1 [Compound B226, (S)-3-((4-amino-7-((5-methyl-6-(piperazin-1-yl)pyridin-3-yl)methyl)imidazo[2,1-f][1,2,4]triazin-2-yl)amino)hexan-1-ol]
25 nM	CCCC(Nc1nc(N)c2ncc(Cc3cnc(N4CCNCC4)c(C)c3)n2n1)C(F)(F)F (stereo not drawn) [Compound B227, 7-((5-methyl-6-(piperazin-1-yl)pyridin-3-yl)methyl)-N2-(1,1,1-trifluoropentan-2-yl)imidazo[2,1-f][1,2,4]triazine-2,4-diamine]
37 nM	CCC[C@@H](CCO)Nc1nc(N)c2ncc(Cc3cnc(N4CCC(CNC)CC4)c(C)c3)n2n1 [Compound B228, (S)-3-((4-amino-7-((5-methyl-6-(4-((methylamino)methyl)piperidin-1-yl)pyridin-3-yl)methyl)imidazo[2,1-f][1,2,4]triazin-2-yl)amino)hexan-1-ol]
14 nM	CCCC(CCO)Oc1nc(N)c2ncc(Cc3cnc(N4CCC(CNC)CC4)c(C)c3)n2n1 (stereo not drawn) [Compound B229, 3-((4-amino-7-((5-methyl-6-(4-((methylamino)methyl)piperidin-1-yl)pyridin-3-yl)methyl)imidazo[2,1-f][1,2,4]triazin-2-yl)oxy)hexan-1-ol]
4.8 nM	CCC[C@H](CC)Oc1nc(N)c2ncc(Cc3cnc(N4CCN(C(=O)CNC)CC4)c(C)c3)n2n1 [Compound B230, (S)-1-(4-(5-((4-amino-2-(hexan-3-yloxy)imidazo[2,1-f][1,2,4]triazin-7-yl)methyl)-3-methylpyridin-2-yl)piperazin-1-yl)-2-(methylamino)ethan-1-one]
4.1 nM	CCC[C@H](C)Nc1nc(N)c2ncc(Cc3cnc(N4CCN(C(=O)CNC)CC4)c(C)c3)n2n1 [Compound B231, (S)-1-(4-(5-((4-amino-2-(pentan-2-ylamino)imidazo[2,1-f][1,2,4]triazin-7-yl)methyl)-3-methylpyridin-2-yl)piperazin-1-yl)-2-(methylamino)ethan-1-one]
31 nM	CCCC(CO)Nc1nc(N)c2ncc(Cc3cnc(N4CCC(CNC)CC4)c(C)c3)n2n1 (stereo not drawn) [Compound B232, 2-((4-amino-7-((5-methyl-6-(4-((methylamino)methyl)piperidin-1-yl)pyridin-3-yl)methyl)imidazo[2,1-f][1,2,4]triazin-2-yl)amino)pentan-1-ol]

Compound	EC50
N2-methyl-7-((5-methyl-6-(piperazin-1-yl)pyridin-3-yl)methyl)-N2-propylimidazo[2,1-f][1,2,4]triazine-2,4-diamine [Compound B84]	1000 nM
